Data on 2 compounds can be found in patent US20250049891A1, “NOVEL PEPTIDE DERIVATIVE DERIVED FROM ADIPONECTIN AND USE THEREOF” (SEOUL NATIONAL UNIVERSITY HOSPITAL, priority 2021, published 2025).

In brackets after ≈: the same amount, converted by molar mass. Peptide text beside a SMILES is read from it.

A word on the share remaining: it is the share of the starting amount still present when the sample was taken. The low end stands for more turnover, the high end for less turnover. By solubility is commonly meant the concentration that dissolves in the medium under given conditions. Read a high solubility as much dissolved substance.

One series concerns the target CYP2C19 (Homo sapiens, UniProt P33261). Conditions: microsomes, 10 µM. The method, then: (§1) Metabolites of each CYP isoenzyme indicator drug produced through the reaction were analyzed by LC-MS/MS using the Shimadzu Nexera XR system and TSQ vantage (Thermo).
A further series concerns the target CYP2D6 (Homo sapiens, UniProt P10635). Conditions: microsomes, 10 µM. As to the method:
as §1

The target in the next series is T1, CYP1A2 (Homo sapiens, UniProt P05177).
T1 sequence (P05177 1-516): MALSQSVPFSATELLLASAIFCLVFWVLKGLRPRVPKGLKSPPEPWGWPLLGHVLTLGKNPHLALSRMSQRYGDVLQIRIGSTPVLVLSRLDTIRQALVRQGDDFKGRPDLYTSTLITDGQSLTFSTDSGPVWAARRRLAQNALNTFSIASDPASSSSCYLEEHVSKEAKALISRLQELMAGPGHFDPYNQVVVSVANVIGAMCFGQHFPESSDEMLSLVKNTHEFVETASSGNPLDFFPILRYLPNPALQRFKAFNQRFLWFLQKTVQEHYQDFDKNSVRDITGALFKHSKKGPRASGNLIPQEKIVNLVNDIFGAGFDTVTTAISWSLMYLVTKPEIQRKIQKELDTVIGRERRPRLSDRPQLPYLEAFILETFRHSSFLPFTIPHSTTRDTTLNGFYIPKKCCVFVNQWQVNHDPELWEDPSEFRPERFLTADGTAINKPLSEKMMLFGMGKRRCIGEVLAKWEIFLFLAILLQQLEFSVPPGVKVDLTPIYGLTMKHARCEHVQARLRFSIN
Conditions: microsomes, 10 µM. The method, then: as §1

The target in another series is CYP2C9 (Homo sapiens, UniProt P11712). To be noted: microsomes, 10 µM. As to the method: as §1
Sequence of CYP2C9 (P11712 whole entry): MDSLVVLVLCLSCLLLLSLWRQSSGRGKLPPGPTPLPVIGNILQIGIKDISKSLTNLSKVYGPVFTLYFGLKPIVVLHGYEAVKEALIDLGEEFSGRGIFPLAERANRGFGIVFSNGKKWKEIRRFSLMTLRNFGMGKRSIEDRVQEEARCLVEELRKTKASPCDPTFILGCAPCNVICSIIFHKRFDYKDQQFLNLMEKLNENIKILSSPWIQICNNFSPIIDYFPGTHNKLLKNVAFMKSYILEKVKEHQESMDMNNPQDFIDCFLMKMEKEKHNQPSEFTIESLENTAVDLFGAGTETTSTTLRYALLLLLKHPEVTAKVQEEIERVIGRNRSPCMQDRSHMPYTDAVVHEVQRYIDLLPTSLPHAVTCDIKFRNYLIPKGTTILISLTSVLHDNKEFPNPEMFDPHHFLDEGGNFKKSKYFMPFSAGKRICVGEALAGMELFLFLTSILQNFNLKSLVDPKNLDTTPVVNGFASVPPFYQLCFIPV
Another series concerns the target CYP3A4 (Homo sapiens, UniProt P08684). Conditions: microsomes, 10 µM. As to the method:
as §1

Series [1] is described as follows: in vitro. To be noted: human, microsomes, pH 7.4.
Procedure: (§2) Three types of liver microsomes (Human, Rat, Mouse, 0.5 mg/ml), a 0.1 M phosphate buffer solution (pH 7.4), and the peptide derivative of the present disclosure were added at a concentration of 1 μM and pre-cultured at 37° C. for 5 minutes, and then added with an NADPH Regeneration system solution and cultured at 37° C. for 30 minutes. Thereafter, to terminate the reaction, the mixture was added with an acetonitrile solution containing an internal standard material (chlorpropamide), centrifuged for 5 minutes (14,000 rpm, 4° C.), and then the supernatant was injected into the LC-MS/MS system to analyze a substrate drug, and thus metabolic stability was evaluated.
(§3) The HPLC column was used with a Kinetex C18 column (2.1×100 mm, 1.7 μm particle size; Phenomenex, USA), and the mobile phase was distilled water (A) containing 0.1% formic acid and acetonitrile (B) containing 0.1% formic acid. TurboSpray Ionization was used as an ion source for MS/MS, and a triple quadruple type was used as a mass spectrometer. The produced metabolites were quantified using a multiple reaction monitoring (MRM) quantitative mode, and data analysis was performed using Analyst software (version 1.6.1).
The nature of series [2]: in vitro. To be noted: human, plasma.
Procedure: (§4) The peptide derivative of the present disclosure was added at a concentration of 1 μM to two types of plasma (human, rat), placed in each tube, and then cultured at 37° C. for time of 0, 30, 60, 120, and 240 minutes. The tube containing plasma was taken out every time, added with an acetonitrile solution containing an internal standard material (chlorpropamide), vortexed for 5 minutes, and centrifuged for 5 minutes (14,000 rpm, 4° C.). Thereafter, the plasma stability of the peptide derivative was evaluated by injecting the supernatant into an LC-MS/MS system and analyzing the drug at each time period. At this time, Procaine and Enalapril were used as reference materials for accuracy during a general plasma stability test.
(§5) After the reaction, the amount of drug remaining in each tube was analyzed by LC-MS/MS using Shimadzu Nexera XR system and TSQ vantage (Thermo). The HPLC column was used with a Luna C18 column (2.0×50 mm, 3 μm particle size; Phenomenex, US), and the mobile phase was distilled water (A) containing 0.1% formic acid and acetonitrile (B) containing 0.1% formic acid. Data analysis was performed using Xcalibur (version 1.6.1). In the result analysis, the plasma stability of each peptide derivative was expressed as % remaining for each time period for the sample without culture.
Series [3] is described as follows: Metabolic stability test, rat liver microsomes. It counts as in vitro ADME. Conditions: pH 7.4, rat liver microsomes 0.5 mg/ml, NADPH, 37° C., 30 m.
Procedure: as §2
(§6) The amount of substrate remaining through the reaction was analyzed by LC-MS/MS using Agilent 1290 infinity series pump system (Agilent, USA) and Triple Quad 5500 LC-MS/MS system (Applied Biosystems, USA). The HPLC column was used with a Kinetex C18 column (2.1×100 mm, 1.7 μm particle size; Phenomenex, USA), and the mobile phase was distilled water (A) containing 0.1% formic acid and acetonitrile (B) containing 0.1% formic acid. TurboSpray Ionization was used as an ion source for MS/MS, and a triple quadruple type was used as a mass spectrometer. The produced metabolites were quantified using a multiple reaction monitoring (MRM) quantitative mode, and data analysis was performed using Analyst software (version 1.6.1).
The test system of series [4] is AMPK phosphorylation. Put plainly: AMPK phosphorylation activity in mouse adipocytes (Western blot). It counts as cell-based. Conditions: 3T3-L1, 10 μM, 24 hours; for AMPK phosphorylation activity (fold change): APN5 = 1.0. The method, then: There were confirmed effects of the peptide derivatives of the present disclosure on the expression and receptor activity of adiponectin in mouse adipocytes as a main adiponectin production site. A mouse adipocyte cell line 3T3-L1 was treated with each of the peptide derivatives of the present disclosure at a concentration of 10 μM and cultured for 24 hours, and then cells were obtained. Thereafter, the proteins were extracted and the effect on AMPK phosphorylation, which was responsible for the main downstream signaling of adiponectin, was confirmed by Western blot.
In general terms: A western blot detects proteins with antibodies after separation by electrophoresis.

The nature of series [5]: Metabolic stability test, mouse liver microsomes. It counts as in vitro ADME. To be noted: pH 7.4, mouse liver microsomes 0.5 mg/ml, NADPH, 37° C., 30 m. Background: Microsomes from liver hold many membrane-bound enzymes, among them those of drug oxidation.
Procedure: as §2, §6
Series [6] is described as follows: in vitro. Conditions: rat, plasma.
Procedure: as §4, §5
The subject of series [7] is AMPK phosphorylation. As to the kind of experiment: Concentration dependence of AMPK phosphorylation activity (Western blot). It counts as cell-based, mouse. To be noted: 3T3-L1, 0, 0.01, 0.1, 1, 10, and 100 μM, 24 hours. The method, then: A mouse adipocyte cell line 3T3-L1 was treated with the peptide derivative of the present disclosure at a series of concentrations of 0, 0.01, 0.1, 1, 10, and 100 μM and cultured for 24 hours, and then cells were obtained. Thereafter, the protein was extracted and the effect of the peptide derivative on AMPK phosphorylation in a concentration-dependent manner was confirmed by Western blot.

The nature of the next series: physchem. Conditions: pH 7.4, aqueous buffer, kinetic from dmso stock.
Another series can be described thus: Solubility test. To be noted: PRISMA HT test buffer, pH 7.4, aqueous buffer, kinetic from dmso stock.
Series [8] is described as follows: Metabolic stability test, human liver microsomes. Conditions: human, microsomes, pH 7.4.
Procedure: as §2, §3
Series [9] concerns 3T3-L1 adipocytes, RD muscle cells, keratinocytes, and fibroblasts. Put plainly: Cytotoxicity in vitro (MTT). It counts as cell-based. To be noted: 0, 0.1, 1, 10, 100, and 500 μM, 24 hours.
Procedure: Using four types of cell lines 3T3-L1 adipocytes, RD muscle cells, keratinocytes, and fibroblasts, each cell was dispensed at 5×10^4 cells per well in a 24-well plate and cultured for 24 hours under each cell culture condition. The medium was discarded, washed with PBS, replaced with a new medium without 10% FBS, treated with the peptide derivative of the present disclosure at different concentrations of 0, 0.1, 1, 10, 100, and 500 μM, and cultured for 24 hours. The medium was carefully removed again and washed with PBS, and then added with an MTT reagent according to a manufacturer's method, reacted at room temperature for 30 minutes, and then absorbance was measured at 450 nm.
Series [10] is described as follows: Plasma stability test, human plasma. Conditions: human, plasma.
Procedure: as §4, §5
The target in the next series is T2, adiponectin receptor 1 (Mus musculus, UniProt Q91VH1).
T2 construct: a mouse adipocyte cell line 3T3-L1 was treated with siRNA of an adiponectin receptor 1 to be knocked down; endogenous in cells; host or cells: 3T3-L1 mouse adipocyte cell line
T2 sequence (Q91VH1 1-375): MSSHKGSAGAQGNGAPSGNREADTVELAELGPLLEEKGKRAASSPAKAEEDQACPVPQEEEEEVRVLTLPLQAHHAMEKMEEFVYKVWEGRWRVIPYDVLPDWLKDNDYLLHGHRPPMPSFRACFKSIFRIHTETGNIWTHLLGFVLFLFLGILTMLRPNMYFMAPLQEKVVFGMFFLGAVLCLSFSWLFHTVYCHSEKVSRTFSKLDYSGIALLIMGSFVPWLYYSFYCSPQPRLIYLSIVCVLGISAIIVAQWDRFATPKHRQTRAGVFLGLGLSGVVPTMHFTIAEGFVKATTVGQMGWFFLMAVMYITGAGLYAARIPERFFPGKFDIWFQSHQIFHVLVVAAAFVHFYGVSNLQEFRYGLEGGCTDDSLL
Put plainly: AMPK phosphorylation activity after knockdown of adiponectin receptor 1 (siRNA, Western blot). It counts as cell-based. Conditions: 3T3-L1, adiponectin receptor 1 siRNA, 10 μM, 24 hours. The method, then: In order to verify whether the peptide derivative of the present disclosure bound to an adiponectin receptor 1, a mouse adipocyte cell line 3T3-L1 was treated with siRNA of an adiponectin receptor 1 to be knocked down, and each of the peptide derivatives of the present disclosure was treated at 10 μM and cultured for 24 hours, and then cells were obtained. Thereafter, the proteins were extracted and it was confirmed by Western blot whether AMPK phosphorylation activity, which had been increased by the peptide derivatives, was lost.

Series [11] is described as follows: Plasma stability test, rat plasma. Conditions: rat, plasma.
Procedure: as §4, §5

Sequence of CYP3A4 (P08684 whole entry): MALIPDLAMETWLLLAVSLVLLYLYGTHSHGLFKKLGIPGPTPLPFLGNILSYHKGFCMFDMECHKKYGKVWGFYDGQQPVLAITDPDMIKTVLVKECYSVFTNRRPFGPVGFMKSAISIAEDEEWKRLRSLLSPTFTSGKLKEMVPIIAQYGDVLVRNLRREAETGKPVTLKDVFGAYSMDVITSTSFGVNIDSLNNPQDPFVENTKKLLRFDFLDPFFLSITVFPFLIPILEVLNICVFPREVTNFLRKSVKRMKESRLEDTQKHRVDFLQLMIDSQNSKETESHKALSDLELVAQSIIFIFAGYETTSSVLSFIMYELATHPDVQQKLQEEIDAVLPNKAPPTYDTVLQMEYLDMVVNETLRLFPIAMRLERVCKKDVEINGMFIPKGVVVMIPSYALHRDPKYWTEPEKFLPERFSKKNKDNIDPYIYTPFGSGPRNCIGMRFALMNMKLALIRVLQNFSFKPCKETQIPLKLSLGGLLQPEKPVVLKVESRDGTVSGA
Sequence of CYP2C19 (P33261 whole entry): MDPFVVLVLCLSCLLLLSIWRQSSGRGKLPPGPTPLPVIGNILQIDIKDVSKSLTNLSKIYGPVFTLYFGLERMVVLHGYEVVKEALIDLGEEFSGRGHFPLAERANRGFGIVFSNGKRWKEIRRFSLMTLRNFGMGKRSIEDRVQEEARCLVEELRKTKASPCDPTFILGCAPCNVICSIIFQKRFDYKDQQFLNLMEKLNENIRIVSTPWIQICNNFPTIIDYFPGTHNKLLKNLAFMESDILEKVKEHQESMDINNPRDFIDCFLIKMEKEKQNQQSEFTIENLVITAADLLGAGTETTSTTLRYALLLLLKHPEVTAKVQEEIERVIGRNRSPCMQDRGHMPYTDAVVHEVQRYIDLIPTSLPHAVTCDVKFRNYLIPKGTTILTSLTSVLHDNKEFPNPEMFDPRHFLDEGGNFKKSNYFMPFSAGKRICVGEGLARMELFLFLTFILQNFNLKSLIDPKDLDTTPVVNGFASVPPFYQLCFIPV
Sequence of CYP2D6 (P10635 whole entry): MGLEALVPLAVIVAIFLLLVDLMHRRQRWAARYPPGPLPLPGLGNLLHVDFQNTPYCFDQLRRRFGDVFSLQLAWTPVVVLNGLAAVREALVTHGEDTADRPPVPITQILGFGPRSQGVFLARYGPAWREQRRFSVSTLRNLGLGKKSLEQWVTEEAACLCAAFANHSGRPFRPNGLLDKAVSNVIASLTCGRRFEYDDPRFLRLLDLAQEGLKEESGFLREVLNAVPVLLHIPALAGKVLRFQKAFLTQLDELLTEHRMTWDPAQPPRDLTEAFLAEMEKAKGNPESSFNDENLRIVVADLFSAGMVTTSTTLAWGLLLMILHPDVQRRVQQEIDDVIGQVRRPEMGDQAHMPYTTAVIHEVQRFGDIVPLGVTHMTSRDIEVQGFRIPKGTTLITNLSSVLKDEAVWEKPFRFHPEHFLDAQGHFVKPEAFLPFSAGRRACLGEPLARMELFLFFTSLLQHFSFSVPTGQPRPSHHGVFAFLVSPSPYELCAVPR
Procedure for Solubility test: (§7) A PRISMA HT solution was diluted in distilled water at a ratio of 1:40, and then used as a test buffer by adjusting the pH to 7.4.
(§8) 10 mL of the prepared test material was diluted in 190 μL of isopropyl alcohol and prepared. In addition, 75 mL of the test solution and 70 mL of isopropyl alcohol were mixed to be used as a blank sample, and 5 mL of the test material diluted in isopropyl alcohol was added to the blank sample. After the diluted sample was mixed, the absorbance was measured and used as an initial test value. […] Thereafter, the precipitate was removed from the sample using a filter plate, 74 mL of the filtered sample was added with 75 mL of isopropyl alcohol, and then the absorbance was measured and used as the sample value.
(§9) The solubility value of the test material was analyzed using a msol Explore (Solubility explorer program) after measuring the absorbance of each sample through a microplate reader. The average and standard deviation of the experimental values (n=3) repeated three times were calculated using the Excel program.
Procedure for physchem: as §7, §8, §9

With `CC(=O)NC(CC(=O)O)C(=O)NC(Cc1ccc(O)cc1)C(=O)NC(Cc1ccc(O)cc1)C(=O)NC(Cc1ccccc1)C(=O)O` (stereo not shown) [DS-28, AcNH-DYYF-OH] (Ac-DYYF-OH; configuration not given here), at CYP2C19, the “CYP inhibition (% of control activity) CYP2C19” value is reported as 87.2 % of control activity. Moreover, the “CYP inhibition (% of control activity) CYP2D6” value at CYP2D6 was 86.1 % of control activity. Moreover, on CYP1A2, the “CYP inhibition (% of control activity) CYP1A2” value is given as 81.7 % of control activity. In addition, the “CYP inhibition (% of control activity) CYP2C9” value at CYP2C9 is 96.9 % of control activity. Further, the “CYP inhibition (% of control activity) CYP3A4” value on CYP3A4 is given as 95.5 % of control activity. Besides, the amount remaining at 0.5 h, 1 μM in “in vitro [1]” was 93.8%; in the series “in vitro [2]” it was 17.6%; in series [3] it was 85.8%; in series [5], 96.6%; in “in vitro [6]”, more than 100%. Further, the share remaining at 2 h, 1 μM in the series “in vitro [2]” was 3.1%; in “in vitro [6]” it was more than 100%. Moreover, the “AMPK phosphorylation activity (fold change)” value with AMPK phosphorylation [4] is on record as 1.9 fold change. Besides, the “concentration dependence of AMPK phosphorylation activity” value in the series on AMPK phosphorylation [7] is “increased AMPK phosphorylation activity in a concentration-dependent manner”. Moreover, the solubility at 24 h in the series “physchem” stood at 321 µg/mL (≈ 495 µM).
Compound `CC(C)CC(NC(=O)CN)C(=O)NC(Cc1ccc(O)cc1)C(=O)NC(Cc1ccc(O)cc1)C(=O)N(C)C(Cc1ccccc1)C(N)=O` (stereo not shown) [DS-48, NH2-GLYYF(N-Me)-NH2] registered a solubility at 24 h in “Solubility test” of 334 µg/mL (≈ 495 µM). Besides, the fraction remaining at 0.5 h, 1 μM in [8] is 21.6%; in series [10], 1.1%; in [3], 2.8%; in series [5] it was 20.6%; in series [11] it was more than 100%. For the same compound, the cytotoxicity result in series [9] is “no toxicity”. Moreover, the fraction remaining at 2 h, 1 μM was less than 1% in series [10] and 84.9% in [11]. The “AMPK phosphorylation activity (fold change)” value in the series on AMPK phosphorylation [4] worked out at 1.5 fold change. For the same compound, the “AMPK phosphorylation activity compared to APN5 (in words)” value with AMPK phosphorylation [4] (compared to APN5) is reported as “significant effect of increasing AMPK phosphorylation activity”. Moreover, the “AMPK phosphorylation activity after knockdown of the adiponectin receptor 1” value on adiponectin receptor 1 is listed as “decreased the AMPK phosphorylation activity after knockdown of the adiponectin receptor 1”. The “concentration dependence of AMPK phosphorylation activity” value with AMPK phosphorylation [7] was “increased AMPK phosphorylation activity in a concentration-dependent manner”.
